These results are taken from ChEMBL document CHEMBL1201862, “PubChem BioAssay data set” (2004).

Assay [1] has as its target T1, Caspase-3 (Homo sapiens, UniProt P42574).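 Also: Dose-response selectivity test against caspase-3 for candidate inhibitors of sentrin-specific proteases (SENPs).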
T1 sequence (P42574 whole entry): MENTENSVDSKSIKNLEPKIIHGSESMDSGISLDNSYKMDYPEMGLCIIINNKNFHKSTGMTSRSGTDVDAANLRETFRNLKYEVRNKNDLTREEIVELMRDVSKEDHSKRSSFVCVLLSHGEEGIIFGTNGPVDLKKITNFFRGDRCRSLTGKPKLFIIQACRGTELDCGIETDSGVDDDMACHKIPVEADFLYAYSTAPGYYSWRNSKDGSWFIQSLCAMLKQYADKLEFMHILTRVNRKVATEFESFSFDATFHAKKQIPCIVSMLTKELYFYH
The class given is functional.

Assay [2] addresses T2, Sentrin-specific protease 6 (Homo sapiens, UniProt Q9GZR1).
T2 sequence (Q9GZR1 whole entry): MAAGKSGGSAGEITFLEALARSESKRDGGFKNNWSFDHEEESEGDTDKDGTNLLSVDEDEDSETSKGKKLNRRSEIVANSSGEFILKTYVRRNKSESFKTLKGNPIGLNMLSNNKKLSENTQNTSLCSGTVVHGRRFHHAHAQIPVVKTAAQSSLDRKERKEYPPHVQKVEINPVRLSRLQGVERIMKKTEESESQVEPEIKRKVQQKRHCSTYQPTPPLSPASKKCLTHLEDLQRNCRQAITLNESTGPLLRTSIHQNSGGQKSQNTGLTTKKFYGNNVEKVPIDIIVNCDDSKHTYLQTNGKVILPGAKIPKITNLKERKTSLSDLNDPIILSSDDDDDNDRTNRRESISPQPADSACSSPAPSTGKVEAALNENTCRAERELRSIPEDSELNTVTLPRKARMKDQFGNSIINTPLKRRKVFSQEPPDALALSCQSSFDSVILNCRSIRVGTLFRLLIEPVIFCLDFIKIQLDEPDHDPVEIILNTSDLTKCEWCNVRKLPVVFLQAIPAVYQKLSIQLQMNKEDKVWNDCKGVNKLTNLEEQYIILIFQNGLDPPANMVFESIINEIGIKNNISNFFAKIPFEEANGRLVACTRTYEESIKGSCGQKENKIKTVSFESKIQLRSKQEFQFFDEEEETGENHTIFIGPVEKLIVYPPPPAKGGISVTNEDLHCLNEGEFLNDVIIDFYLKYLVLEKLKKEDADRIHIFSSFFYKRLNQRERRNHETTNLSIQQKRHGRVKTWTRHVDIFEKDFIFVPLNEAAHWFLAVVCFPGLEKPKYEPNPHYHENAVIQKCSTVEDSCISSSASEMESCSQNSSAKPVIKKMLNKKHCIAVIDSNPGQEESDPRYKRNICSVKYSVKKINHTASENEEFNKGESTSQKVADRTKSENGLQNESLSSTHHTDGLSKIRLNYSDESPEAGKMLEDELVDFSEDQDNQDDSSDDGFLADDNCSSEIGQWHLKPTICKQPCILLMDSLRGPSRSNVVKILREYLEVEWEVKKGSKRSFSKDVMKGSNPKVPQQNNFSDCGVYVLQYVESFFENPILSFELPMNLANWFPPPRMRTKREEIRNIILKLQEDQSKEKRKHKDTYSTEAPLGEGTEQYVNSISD
The class given is functional.

In assay [3] the target is T3, Sentrin-specific protease 8 (Homo sapiens, UniProt Q96LD8).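 Also: luminescence read-out of SENP8 inhibition, dose-response confirmation following an ultra-high-throughput screen.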
T3 sequence (Q96LD8 whole entry): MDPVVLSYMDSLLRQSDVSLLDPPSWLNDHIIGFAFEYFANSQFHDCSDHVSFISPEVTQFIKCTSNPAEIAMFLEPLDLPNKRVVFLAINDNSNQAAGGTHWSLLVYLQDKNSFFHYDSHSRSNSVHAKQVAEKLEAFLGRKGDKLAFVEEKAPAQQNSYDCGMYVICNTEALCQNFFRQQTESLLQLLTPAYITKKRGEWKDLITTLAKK
It is filed as functional.

In assay [4] the target is T4, Histone-lysine N-methyltransferase NSD2 (Homo sapiens, UniProt O96028).
T4 sequence (O96028 whole entry): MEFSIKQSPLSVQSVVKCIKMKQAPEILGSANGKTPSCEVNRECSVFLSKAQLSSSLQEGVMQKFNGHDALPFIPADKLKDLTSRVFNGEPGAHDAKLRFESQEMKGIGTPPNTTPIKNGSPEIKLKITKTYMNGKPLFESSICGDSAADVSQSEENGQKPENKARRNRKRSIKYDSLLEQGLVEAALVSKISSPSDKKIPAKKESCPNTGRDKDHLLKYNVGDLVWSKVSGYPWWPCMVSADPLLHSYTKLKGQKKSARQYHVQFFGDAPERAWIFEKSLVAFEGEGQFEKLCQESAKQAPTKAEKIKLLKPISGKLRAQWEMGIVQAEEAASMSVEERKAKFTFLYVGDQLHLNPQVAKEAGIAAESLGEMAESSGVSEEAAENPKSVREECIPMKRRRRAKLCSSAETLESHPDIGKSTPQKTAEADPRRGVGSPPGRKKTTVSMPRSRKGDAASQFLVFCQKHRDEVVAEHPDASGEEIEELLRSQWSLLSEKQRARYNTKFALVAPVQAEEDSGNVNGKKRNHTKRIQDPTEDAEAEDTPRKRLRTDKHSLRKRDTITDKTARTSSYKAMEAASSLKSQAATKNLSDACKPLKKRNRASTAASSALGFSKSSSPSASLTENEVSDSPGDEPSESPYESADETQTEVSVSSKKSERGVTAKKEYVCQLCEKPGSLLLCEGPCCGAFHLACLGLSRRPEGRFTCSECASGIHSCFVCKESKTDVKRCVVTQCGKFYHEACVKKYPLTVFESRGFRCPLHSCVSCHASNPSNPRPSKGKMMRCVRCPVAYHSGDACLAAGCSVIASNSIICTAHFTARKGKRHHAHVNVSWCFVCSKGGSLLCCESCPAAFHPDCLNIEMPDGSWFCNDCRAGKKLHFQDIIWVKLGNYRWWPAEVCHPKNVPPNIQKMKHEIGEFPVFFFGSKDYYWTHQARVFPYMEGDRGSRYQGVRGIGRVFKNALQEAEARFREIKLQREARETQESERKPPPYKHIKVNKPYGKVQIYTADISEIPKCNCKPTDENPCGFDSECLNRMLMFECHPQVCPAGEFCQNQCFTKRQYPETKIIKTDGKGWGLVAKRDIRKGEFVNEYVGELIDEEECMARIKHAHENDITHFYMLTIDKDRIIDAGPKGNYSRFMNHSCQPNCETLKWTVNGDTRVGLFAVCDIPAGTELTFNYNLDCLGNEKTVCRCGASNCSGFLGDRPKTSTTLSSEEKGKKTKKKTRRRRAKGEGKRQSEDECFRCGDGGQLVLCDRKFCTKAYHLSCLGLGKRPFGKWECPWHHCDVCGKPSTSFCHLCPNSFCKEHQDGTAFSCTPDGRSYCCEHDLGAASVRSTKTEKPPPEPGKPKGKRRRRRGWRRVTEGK
The class given is biochemical.

Active and inactive are the calls of the source. Rule as the data show it, for most assays here: actives have a measured IC50 and inactives only a lower limit.

With `COc1cc2c(cc1OC)-c1c(OC)c(OC)cc3c1[C@H](C2)N(C)CC3`, the IC50 (in general, the concentration at which inhibition is half-maximal) in assay [1] is < 1.55 µM (active); in assay [2] it was 2.21 µM (active); in assay [3] it was 5.13 µM (active).
Consider `O=C1C(Cl)=C(N2CCC(C(=O)O)CC2)C(=O)c2ccccc21`, for which the IC50 in assay [1] was 15.6 µM (active); in assay [2], 12.6 µM (active); in assay [3] it was 20.2 µM (active). Besides, in assay [4], the AC50 (usually the concentration giving half of the maximal activity seen) was 1.46 µM (active).
With `COC1=C(c2ccccc2)C(=O)c2ccccc2C1=O`, in assay [4], the AC50 was > 20 µM (inactive).
